According to patent US20060168675A1, “Novel polypetide having function of 7-keto-8-aminopelargonic acid synthase of plant and method for inducing growth inhibition and lethality by suppressing expression of the polypeptide” (GENOMINE, INC, priority 2002, published 2006):

What was measured:
[1] = test system: transgenic Arabidopsis thaliana comprising antisense construct of AtKAPAS gene; settings: pots filled with sands containing 1 mM biotin; Basta treated 5 times; transformed seeds
Method: The pots were treated with Basta 5 times, and then investigated for the growth of Arabidopsis thaliana in every pot.

[2] = biological target: T1, protein expressed by AtKAPAS gene (KAPA synthase) (Arabidopsis thaliana, UniProt Q8GW43, DEL236-242/L243I); assay type: biochemical; settings: substrate pimeroyl CoA, Lineweaver-Burk plot, 30° C., pH 7.5, 340 nm
T1 construct: contains 1410 bp size open reading frame encoding 469 amino acids; made in house; host or cells: E. coli BL21-Gold(DE) transformed with pCKAPA (AtKAPAS cDNA in pCAL-n)
T1 sequence (Q8GW43 other isoform, or with tags, fused parts or gaps DEL236-242/L243I): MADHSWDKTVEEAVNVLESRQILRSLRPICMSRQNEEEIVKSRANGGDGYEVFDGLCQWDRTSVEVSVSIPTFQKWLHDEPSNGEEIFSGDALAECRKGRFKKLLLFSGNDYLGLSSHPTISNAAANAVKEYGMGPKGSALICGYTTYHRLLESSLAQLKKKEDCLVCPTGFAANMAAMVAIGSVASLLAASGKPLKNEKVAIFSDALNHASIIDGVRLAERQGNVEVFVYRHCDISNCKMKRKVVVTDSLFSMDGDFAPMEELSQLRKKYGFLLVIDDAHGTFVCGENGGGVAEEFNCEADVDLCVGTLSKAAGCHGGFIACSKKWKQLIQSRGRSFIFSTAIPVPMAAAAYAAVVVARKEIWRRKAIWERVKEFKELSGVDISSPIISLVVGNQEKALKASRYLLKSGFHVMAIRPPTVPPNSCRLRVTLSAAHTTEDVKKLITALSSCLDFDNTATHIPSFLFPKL
Method: The enzyme activity of the protein was measured at 340 nm using a spectrophotometer (Backman DU series 60 spectrophotometer) adjusted at 30° C. according to a method of Alexeev et al.(Alexeev et al. J. Mol. Biol., 284:401-419, 1998). […] In every reaction solution, the concentration of the protein was 10 μM. L-alanine and pimeroyl CoA were also added into each reaction solution ([…]). Results were analyzed using the Soft-Pac Module kinetics software. Before the analysis, enzyme samples were dialyzed with 20 mM potassium phosphate buffer (pH 7.5) containing 100 μM PLP (pyridoxal 5′-phosphate) at 4° C. for 2 hours. The cuvette containing other substances but the purified protein was used as a control group for the measurement of the enzyme activity.
The changes of reaction speed according to substrate concentration were measured, and then represented by Lineweaver-Burkes plot (see FIG. 4).

[3] = biological target: KAPA syntase of Bacillus sphaericus (Lysinibacillus sphaericus, UniProt P22806); settings: read-out: Km value to pimeroyl CoA; KAPA synthase of Bacillus sphaericus; cited from earlier work
Sequence of KAPA syntase of Bacillus sphaericus (P22806 whole entry): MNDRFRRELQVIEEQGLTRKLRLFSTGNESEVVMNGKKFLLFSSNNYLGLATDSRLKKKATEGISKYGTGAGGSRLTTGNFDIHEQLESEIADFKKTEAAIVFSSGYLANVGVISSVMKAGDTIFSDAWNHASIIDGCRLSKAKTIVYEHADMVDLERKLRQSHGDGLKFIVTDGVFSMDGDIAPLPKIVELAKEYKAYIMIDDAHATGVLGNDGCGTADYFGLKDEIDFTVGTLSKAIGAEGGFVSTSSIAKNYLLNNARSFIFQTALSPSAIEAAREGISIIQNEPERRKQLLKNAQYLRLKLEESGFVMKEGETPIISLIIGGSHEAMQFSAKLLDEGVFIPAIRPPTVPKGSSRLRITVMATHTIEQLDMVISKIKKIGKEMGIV

[4] = biological target: KAPA syntase of E. coli (Escherichia coli, UniProt P12998); settings: KAPA synthase of E. coli; read-out: Km value to pimeroyl CoA; cited from earlier work
Sequence of KAPA syntase of E. coli (P12998 whole entry): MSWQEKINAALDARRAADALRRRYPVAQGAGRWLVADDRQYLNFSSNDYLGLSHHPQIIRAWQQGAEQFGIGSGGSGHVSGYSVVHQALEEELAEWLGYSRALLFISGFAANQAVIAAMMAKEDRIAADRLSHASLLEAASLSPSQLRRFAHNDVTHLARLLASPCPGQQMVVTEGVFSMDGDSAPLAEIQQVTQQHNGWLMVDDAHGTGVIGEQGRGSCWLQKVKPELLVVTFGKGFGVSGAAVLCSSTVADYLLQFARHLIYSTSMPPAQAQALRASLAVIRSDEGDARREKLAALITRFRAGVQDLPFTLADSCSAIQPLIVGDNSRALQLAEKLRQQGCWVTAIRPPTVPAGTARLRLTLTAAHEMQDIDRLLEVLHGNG

SMILES | Individual plants grown up [1] | Km ([2]; read-out: Km value) [µM] | Vmax value [2] | Km [3] [µM] | Km [4] [µM]
O=C(O)CCCC[C@@H]1SC[C@@H]2NC(=O)N[C@@H]21 [biotin] | 16 |  |  |  | 
CC(C)(COP(=O)(O)OP(=O)(O)OC[C@H]1O[C@@H](n2cnc3c(N)ncnc32)[C@H](O)[C@@H]1OP(=O)(O)O)[C@@H](O)C(=O)NCCC(=O)NCCSC(=O)CCCCCC(=O)O [pimeroyl CoA, pimeloyl CoA] |  | 0.54 | 7.93 | 2500 | 500
